{"source": "patent US10501447B2", "about": "“Imidazolecarboxamides and their use as FAAH inhibitors” (BIAL-PORTELA & Ca, S.A., priority 2013, dated 2019)", "key": {"[1]": {"biological_target": "T1, FAAH (Rattus norvegicus, UniProt P97612)", "T1 construct": "Liver biopsies and brain samples (without cerebellum) were collected and placed in a plastic vial containing membrane buffer; from tissue; host or cells: liver homogenate of male Wistar rats", "T1 sequence (P97612 1-579)": "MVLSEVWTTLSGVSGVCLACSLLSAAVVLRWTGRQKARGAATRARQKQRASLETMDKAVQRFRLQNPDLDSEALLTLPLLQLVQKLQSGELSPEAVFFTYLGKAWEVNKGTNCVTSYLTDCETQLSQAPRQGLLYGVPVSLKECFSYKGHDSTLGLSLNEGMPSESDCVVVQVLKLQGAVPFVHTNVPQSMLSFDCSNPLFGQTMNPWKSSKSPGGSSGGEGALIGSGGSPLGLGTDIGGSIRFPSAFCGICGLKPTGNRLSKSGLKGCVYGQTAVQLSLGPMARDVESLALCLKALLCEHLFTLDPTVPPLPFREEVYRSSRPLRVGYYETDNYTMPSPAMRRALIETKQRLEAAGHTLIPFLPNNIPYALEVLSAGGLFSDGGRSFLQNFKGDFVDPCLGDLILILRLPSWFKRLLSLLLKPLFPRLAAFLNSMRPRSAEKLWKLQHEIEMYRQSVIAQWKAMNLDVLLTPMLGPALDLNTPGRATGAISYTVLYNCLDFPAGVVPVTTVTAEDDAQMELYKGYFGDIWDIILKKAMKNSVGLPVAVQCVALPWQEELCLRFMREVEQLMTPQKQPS", "assay": "FAAH activity in liver homogenate after oral dosing of rats", "type": "in vivo", "settings": "gavage; for activity at 0.1 mg/kg: rat, po", "method": "In vivo testing was performed according to the protocol described below. BRh (brain homogenate) indicates inhibition in central nervous tissue, in this case, brain, and LVh (liver homogenate) indicates inhibition in peripheral tissue, in this case, liver. The controls were the reaction mix minus the test compounds. Therefore, a low value for the test compound indicates a strong inhibitor.\nMale Wistar rats (body weight range: 190-230 g) were obtained from Harlan (Spain). Rats were kept 5 per cage, under controlled environmental conditions (12 hr light/dark cycle and room temperature 22±1° C.). Food and tap water were allowed ad libitum and the experiments were all carried out during daylight hours.\nRats were administered the appropriate dose of compound of the invention via gavage (administration volume=4 ml/kg body weight) using animal feeding stainless steel curve needles (Perfectum, U.S.A.). Vehicle was 0.5% CMC in Milli Q water. Rats were fasted at least 15 h before experiments.\nFifteen minutes before sacrifice animals were anesthetized with pentobarbital i.p. 60 mg/kg body weight. Liver biopsies and brain samples (without cerebellum) were collected and placed in a plastic vial containing membrane buffer (3 mM MgCl2, 1 mM EDTA, 50 mM Tris HCl pH 7.4) and, in the case of liver samples, glass beads (2.5 mm BioSpec Products). Tissues were stored at −20° C. until analysis.\nAnandamide [ethanolamine-1-3H-] was obtained from American Radiochemicals (specific activity of 60 Ci/mmol). All other reagents were obtained from Sigma-Aldrich. Optiphase Supermix was obtained from Perkin Elmer.\nTissues were thawed on ice; livers were homogenized in a Precellys 24 Dual Tissue Homogenizer (Bertin Technologies) for 2 cycles of 5 sec with an interval of 5 min in ice and brains were homogenized with Heidolph Silent Crusher M (probe 8 F/M) for about 45 sec at maximum velocity. Total protein in homogenates was determined with the BioRad Protein Assay (BioRad) using a standard curve of BSA (50-250 μg/ml).\nReaction mix (total volume of 200 μl) contained: 2 μM AEA (2 μM AEA+5 nM 3H-AEA), 0.1% fatty acid free BSA, 15 μg (brain) or 1.5 μg (liver) protein, in 1 mM EDTA, 10 mM Tris pH 7.6. After 15 minutes pre-incubation at 37° C. reaction was started by the addition of the substrate solution (cold AEA+radiolabelled AEA+BSA). Reaction was carried out for 7 minutes for liver samples and for 10 min for brain samples and terminated by addition of 400 μL chloroform:methanol (1:1, v/v) solution. Reaction samples were vortex twice, left on ice for 5 minutes and then centrifuged in microfuge (7 minutes, 7000 rpm). Two-hundred μl of supernatants were added to 800 μl Optiphase Supermix scintillation cocktail previously distributed in 24-well plates. Counts per minute (cpm) were determined in a Microbeta TriLux scintillation counter. In each assay blank samples (without protein) were prepared. The percentage of remaining enzymatic activity was calculated in respect to controls and after blank subtraction."}, "[2]": {"assay": "CYPs metabolic stability assay in MLM", "type": "in vitro ADME, mouse", "settings": "1 h, 50 μM compound; for Metabolic Stability (% of Remaining) Mouse CYP+: with NADPH; for Metabolic Stability (% of Remaining) Mouse CYP−: without NADPH (control value)", "method": "Stability of the test compounds was performed in MLM (mouse liver microsomes) or HLM (human liver microsomes) in the presence and in the absence of NADPH.\nThe stability was measured using the incubation mixture (100 μl total volume) contained 1 mg/ml total protein, MgCl2 5 mM and 50 mM K-phosphate buffer. Samples were incubated in the presence and in the absence of NADPH 1 mM. Reactions were pre-incubated 5 min and the reaction initiated with the compound under test (5 μM for HLM and 50 μM for MLM). Samples were incubated for 60 min in a shaking water bath at 37° C. The reaction was stopped by adding 100 μl of acetonitrile. Samples were then centrifuged, filtered and supernatant injected in HLPC-MSD. Test compounds were dissolved in DMSO and the final concentration of DMSO in the reaction was below 0.5% (v/v). At T0 acetonitrile was added before adding the compound. All experiments were performed with samples in duplicate.\nThe stability data are given as % of remaining compound after 1 h exposure to MLM or HLM. 100% means no metabolic reaction at all and 0% corresponds to full enzymatic degradation. “CYP−” refers to the absence of cofactor (NADPH) which is essential for CYP metabolic reactions. Therefore “CYP−” can be regarded as control value. “CYP+” refers to the presence of cofactor and the enzymatic degradation may take place according to the stability of the test compound."}}}
{"smiles": "Cc1cc(-c2cn(C(=O)N(C)C3CCN(C(=O)C4CC4)CC3)cn2)ccc1O", "note": "[Compound 3, N-(1-(Cyclopropanecarbonyl)piperidin-4-yl)-4-(4-hydroxy-3-methylphenyl)-N-methyl-1H-imidazole-1-carboxamide]", "values": [{"measurement": "activity at 0.1 mg/kg", "setting": "[1]; 1 h", "result": 83.5, "unit": "%"}, {"measurement": "activity at 0.1 mg/kg", "setting": "[1]; 8 h", "result": 62.5, "unit": "%"}, {"measurement": "Metabolic Stability (% of Remaining) Mouse CYP+", "setting": "[2]", "result": 98, "unit": "%"}, {"measurement": "Metabolic Stability (% of Remaining) Mouse CYP−", "setting": "[2]", "result": 91, "unit": "%"}]}
{"smiles": "CN(C(=O)n1cnc(-c2cccc(NS(N)(=O)=O)c2)c1)C1CCOCC1", "note": "[Compound 1, N-Methyl-4-(3-(sulfamoylamino)phenyl)-N-(tetrahydro-2H-pyran-4-yl)-1H-imidazole-1-carboxamide]", "values": [{"measurement": "FAAH Activity (%) rat Liver", "setting": "[1]; Dose: 1 mg/k9, 1 h", "result": 9.8, "unit": "%"}, {"measurement": "FAAH Activity (%) rat Liver", "setting": "[1]; Dose: 1 mg/k9, 8 h", "result": 4.8, "unit": "%"}, {"measurement": "FAAH Activity (%) rat Liver", "setting": "[1]; Dose: 1 mg/k9, 24 h", "result": 22.7, "unit": "%"}, {"measurement": "Metabolic Stability (% of Remaining) Mouse CYP+", "setting": "[2]", "result": 93, "unit": "%"}, {"measurement": "Metabolic Stability (% of Remaining) Mouse CYP−", "setting": "[2]", "result": 100, "unit": "%"}]}
{"smiles": "CCC(=O)N1CCC(N(C)C(=O)n2cnc(-c3ccc(O)c(C)c3)c2)CC1", "note": "[Compound 2, 4-(4-Hydroxy-3-methylphenyl)-N-methyl-N-(1-propionylpiperidin-4-yl)-1H-imidazole-1-carboxamide]", "values": [{"measurement": "FAAH Activity (%) rat Liver", "setting": "[1]; Dose: 1 mg/k9, 1 h", "result": 25.7, "unit": "%"}, {"measurement": "FAAH Activity (%) rat Liver", "setting": "[1]; Dose: 1 mg/k9, 8 h", "result": 18.2, "unit": "%"}, {"measurement": "FAAH Activity (%) rat Liver", "setting": "[1]; Dose: 1 mg/k9, 24 h", "result": 17.8, "unit": "%"}, {"measurement": "activity at 0.1 mg/kg", "setting": "[1]; 1 h", "result": 78.2, "unit": "%"}, {"measurement": "activity at 0.1 mg/kg", "setting": "[1]; 8 h", "result": 59.1, "unit": "%"}, {"measurement": "Metabolic Stability (% of Remaining) Mouse CYP+", "setting": "[2]", "result": 86, "unit": "%"}, {"measurement": "Metabolic Stability (% of Remaining) Mouse CYP−", "setting": "[2]", "result": 83, "unit": "%"}]}
